Test results from ChEMBL document CHEMBL3045532, “Synthesis and evaluation of novel prodrugs of naproxen” (Med Chem Res, 2011).
Each block holds one molecule with its values, some of them ahead of it.

Assays:
Rattus norvegicus [1] = experiment: Anti-inflammatory activity in Rattus norvegicus Wistar (rat) assessed as inhibition of carrageenan-induced edema volume at 67.0 mg/kg, po measured after 30 min; format: functional; details: 0.5 h
Rattus norvegicus [2] = experiment: Anti-inflammatory activity in Rattus norvegicus Wistar (rat) assessed as inhibition of carrageenan-induced edema volume at 67.0 mg/kg, po measured after 90 min; format: functional; details: 1.5 h
Rattus norvegicus [3] = experiment: Anti-inflammatory activity in Rattus norvegicus Wistar (rat) assessed as inhibition of carrageenan-induced edema volume at 67.0 mg/kg, po measured after 60 min; format: functional; details: 1 h
Rattus norvegicus [4] = experiment: Anti-inflammatory activity in Rattus norvegicus Wistar (rat) assessed as inhibition of carrageenan-induced edema volume at 67.0 mg/kg, po measured after 120 min; format: functional; details: 2 h
Mus musculus [5] = experiment: Analgesic activity in Mus musculus (mouse) assessed as inhibition of acetic acid-induced writhing at 67 mg/kg, po pretreated 1 hr before acetic acid challenge; format: functional
Rattus norvegicus [6] = experiment: Anti-inflammatory activity in Rattus norvegicus Wistar (rat) assessed as inhibition of carrageenan-induced edema volume at 71.9 mg/kg, po measured after 30 min; format: functional; details: 0.5 h
[7] = Prodrug conversion in acetate buffer assessed as half-life for hydrolysis at pH 5; format: physicochemical
[8] = Prodrug conversion in acetate buffer assessed as half-life for hydrolysis at pH 3; format: physicochemical
[9] = Prodrug conversion in phosphate buffer assessed as half-life for hydrolysis at pH 7.4; format: physicochemical
Mus musculus [10] = experiment: Analgesic activity in Mus musculus (mouse) assessed as inhibition of acetic acid-induced writhing at 71.9 mg/kg, po pretreated 1 hr before acetic acid challenge; format: functional
Rattus norvegicus [11] = experiment: Anti-inflammatory activity in Rattus norvegicus Wistar (rat) assessed as inhibition of carrageenan-induced edema volume at 71.9 mg/kg, po measured after 60 min; format: functional; details: 1 h
[12] = Prodrug conversion in acetate buffer assessed as half-life for hydrolysis at pH 4; format: physicochemical
Rattus norvegicus [13] = experiment: Anti-inflammatory activity in Rattus norvegicus Wistar (rat) assessed as inhibition of carrageenan-induced edema volume at 71.9 mg/kg, po measured after 90 min; format: functional; details: 1.5 h
Rattus norvegicus [14] = experiment: Anti-inflammatory activity in Rattus norvegicus Wistar (rat) assessed as inhibition of carrageenan-induced edema volume at 71.9 mg/kg, po measured after 120 min; format: functional; details: 2 h
Mus musculus [15] = experiment: Analgesic activity in Mus musculus (mouse) assessed as inhibition of acetic acid-induced writhing at 67.6 mg/kg, po pretreated 1 hr before acetic acid challenge; format: functional
Rattus norvegicus [16] = experiment: Anti-inflammatory activity in Rattus norvegicus Wistar (rat) assessed as inhibition of carrageenan-induced edema volume at 67.6 mg/kg, po measured after 60 min; format: functional; details: 1 h
Rattus norvegicus [17] = experiment: Anti-inflammatory activity in Rattus norvegicus Wistar (rat) assessed as inhibition of carrageenan-induced edema volume at 67.6 mg/kg, po measured after 120 min; format: functional; details: 2 h
Rattus norvegicus [18] = experiment: Anti-inflammatory activity in Rattus norvegicus Wistar (rat) assessed as inhibition of carrageenan-induced edema volume at 67.6 mg/kg, po measured after 90 min; format: functional; details: 1.5 h
Rattus norvegicus [19] = experiment: Anti-inflammatory activity in Rattus norvegicus Wistar (rat) assessed as inhibition of carrageenan-induced edema volume at 67.6 mg/kg, po measured after 30 min; format: functional; details: 0.5 h
Rattus norvegicus [20] = experiment: Anti-inflammatory activity in Rattus norvegicus Wistar (rat) assessed as inhibition of carrageenan-induced edema volume at 68.9 mg/kg, po measured after 120 min; format: functional; details: 2 h
Rattus norvegicus [21] = experiment: Anti-inflammatory activity in Rattus norvegicus Wistar (rat) assessed as inhibition of carrageenan-induced edema volume at 68.9 mg/kg, po measured after 30 min; format: functional; details: 0.5 h
Mus musculus [22] = experiment: Analgesic activity in Mus musculus (mouse) assessed as inhibition of acetic acid-induced writhing at 68.9 mg/kg, po pretreated 1 hr before acetic acid challenge; format: functional
Rattus norvegicus [23] = experiment: Anti-inflammatory activity in Rattus norvegicus Wistar (rat) assessed as inhibition of carrageenan-induced edema volume at 68.9 mg/kg, po measured after 60 min; format: functional; details: 1 h
Rattus norvegicus [24] = experiment: Anti-inflammatory activity in Rattus norvegicus Wistar (rat) assessed as inhibition of carrageenan-induced edema volume at 68.9 mg/kg, po measured after 90 min; format: functional; details: 1.5 h
Mus musculus [25] = experiment: Analgesic activity in Mus musculus (mouse) assessed as inhibition of acetic acid-induced writhing at 64.7 mg/kg, po pretreated 1 hr before acetic acid challenge; format: functional
Rattus norvegicus [26] = experiment: Anti-inflammatory activity in Rattus norvegicus Wistar (rat) assessed as inhibition of carrageenan-induced edema volume at 64.7 mg/kg, po measured after 120 min; format: functional; details: 2 h
Rattus norvegicus [27] = experiment: Anti-inflammatory activity in Rattus norvegicus Wistar (rat) assessed as inhibition of carrageenan-induced edema volume at 64.7 mg/kg, po measured after 60 min; format: functional; details: 1 h
Rattus norvegicus [28] = experiment: Anti-inflammatory activity in Rattus norvegicus Wistar (rat) assessed as inhibition of carrageenan-induced edema volume at 64.7 mg/kg, po measured after 90 min; format: functional; details: 1.5 h
Rattus norvegicus [29] = experiment: Anti-inflammatory activity in Rattus norvegicus Wistar (rat) assessed as inhibition of carrageenan-induced edema volume at 64.7 mg/kg, po measured after 30 min; format: functional; details: 0.5 h
Rattus norvegicus [30] = experiment: Anti-inflammatory activity in Rattus norvegicus Wistar (rat) assessed as inhibition of carrageenan-induced edema volume at 69.6 mg/kg, po measured after 90 min; format: functional; details: 1.5 h
Rattus norvegicus [31] = experiment: Anti-inflammatory activity in Rattus norvegicus Wistar (rat) assessed as inhibition of carrageenan-induced edema volume at 69.6 mg/kg, po measured after 30 min; format: functional; details: 0.5 h
Rattus norvegicus [32] = experiment: Anti-inflammatory activity in Rattus norvegicus Wistar (rat) assessed as inhibition of carrageenan-induced edema volume at 69.6 mg/kg, po measured after 60 min; format: functional; details: 1 h
Rattus norvegicus [33] = experiment: Anti-inflammatory activity in Rattus norvegicus Wistar (rat) assessed as inhibition of carrageenan-induced edema volume at 69.6 mg/kg, po measured after 120 min; format: functional; details: 2 h
Mus musculus [34] = experiment: Analgesic activity in Mus musculus (mouse) assessed as inhibition of acetic acid-induced writhing at 69.6 mg/kg, po pretreated 1 hr before acetic acid challenge; format: functional

Structure (SMILES): COc1ccc2cc(C(C)C(=O)OCC(OC(C)=O)C(OC(C)=O)C(OC(C)=O)C(/C=N/[C@@H](Cc3cnc[nH]3)C(=O)O)OC(C)=O)ccc2c1 (some centres undefined)
inhibition in vivo at 67 mg/kg (Rattus norvegicus [1]): 26%
inhibition in vivo at 67 mg/kg (Rattus norvegicus [2]): 39%
inhibition in vivo at 67 mg/kg (Rattus norvegicus [3]): 13%
inhibition in vivo at 67 mg/kg (Rattus norvegicus [4]): 58%
inhibition in vivo at 67 mg/kg (Mus musculus [5]): 65.9%

t1/2 [7]: 57 h
t1/2 [8]: 88 h
t1/2 [9]: 18 h
t1/2 [12]: 115 h
Structure (SMILES): COc1ccc2cc(C(C)C(=O)OCC(OC(C)=O)C(OC(C)=O)C(OC(C)=O)C(/C=N/[C@@H](Cc3c[nH]c4ccccc34)C(=O)O)OC(C)=O)ccc2c1 (some centres undefined)
inhibition in vivo at 71.9 mg/kg (Rattus norvegicus [6]): 18%
inhibition in vivo at 71.9 mg/kg (Mus musculus [10]): 73.7%
inhibition in vivo at 71.9 mg/kg (Rattus norvegicus [11]): 16%
inhibition in vivo at 71.9 mg/kg (Rattus norvegicus [13]): 36%
inhibition in vivo at 71.9 mg/kg (Rattus norvegicus [14]): 70%

Structure (SMILES): COc1ccc2cc(C(C)C(=O)OCC(OC(C)=O)C(OC(C)=O)C(OC(C)=O)C(/C=N/[C@@H](CC(=O)O)C(=O)O)OC(C)=O)ccc2c1 (some centres undefined)
inhibition in vivo at 67.6 mg/kg (Mus musculus [15]): 75.1%
inhibition in vivo at 67.6 mg/kg (Rattus norvegicus [16]): 1%
inhibition in vivo at 67.6 mg/kg (Rattus norvegicus [17]): 45%
inhibition in vivo at 67.6 mg/kg (Rattus norvegicus [18]): 28%
inhibition in vivo at 67.6 mg/kg (Rattus norvegicus [19]): 20%

Structure (SMILES): COc1ccc2cc(C(C)C(=O)OCC(OC(C)=O)C(OC(C)=O)C(OC(C)=O)C(/C=N/[C@@H](CCC(=O)O)C(=O)O)OC(C)=O)ccc2c1 (some centres undefined)
inhibition in vivo at 68.9 mg/kg (Rattus norvegicus [20]): 66%
inhibition in vivo at 68.9 mg/kg (Rattus norvegicus [21]): 32%
inhibition in vivo at 68.9 mg/kg (Mus musculus [22]): 64.1%
inhibition in vivo at 68.9 mg/kg (Rattus norvegicus [23]): 32%
inhibition in vivo at 68.9 mg/kg (Rattus norvegicus [24]): 53%

Structure (SMILES): COc1ccc2cc(C(C)C(=O)OCC(OC(C)=O)C(OC(C)=O)C(OC(C)=O)C(/C=N/[C@@H](CCCN)C(=O)O)OC(C)=O)ccc2c1 (some centres undefined)
inhibition in vivo at 64.7 mg/kg (Mus musculus [25]): 82%
inhibition in vivo at 64.7 mg/kg (Rattus norvegicus [26]): 67%
inhibition in vivo at 64.7 mg/kg (Rattus norvegicus [27]): 32%
inhibition in vivo at 64.7 mg/kg (Rattus norvegicus [28]): 50%
inhibition in vivo at 64.7 mg/kg (Rattus norvegicus [29]): 24%

Structure (SMILES): COc1ccc2cc(C(C)C(=O)OCC(OC(C)=O)C(OC(C)=O)C(OC(C)=O)C(/C=N/[C@@H](Cc3ccc(O)c(O)c3)C(=O)O)OC(C)=O)ccc2c1 (some centres undefined)
inhibition in vivo at 69.6 mg/kg (Rattus norvegicus [30]): 50%
inhibition in vivo at 69.6 mg/kg (Rattus norvegicus [31]): 44%
inhibition in vivo at 69.6 mg/kg (Rattus norvegicus [32]): 41%
inhibition in vivo at 69.6 mg/kg (Rattus norvegicus [33]): 73%
inhibition in vivo at 69.6 mg/kg (Mus musculus [34]): 92.3%
